Measurements published in ChEMBL document CHEMBL1944605, “Amides of xanthurenic acid as zinc-dependent inhibitors of Lp-PLA(2)” (Bioorg Med Chem Lett, 2012).
pIC50: −log10 of the molar value.

Experiments:
[1] = target: T1, Platelet-activating factor acetylhydrolase (Homo sapiens, UniProt Q13093); assay: Inhibition of human plasma lipoprotein-associated phospholipase A2 using 2-thio-PAF as substrate preincubated for 20 mins measured 1 hr post substrate addition by spectrophotometric analysis
T1 sequence (Q13093 whole entry): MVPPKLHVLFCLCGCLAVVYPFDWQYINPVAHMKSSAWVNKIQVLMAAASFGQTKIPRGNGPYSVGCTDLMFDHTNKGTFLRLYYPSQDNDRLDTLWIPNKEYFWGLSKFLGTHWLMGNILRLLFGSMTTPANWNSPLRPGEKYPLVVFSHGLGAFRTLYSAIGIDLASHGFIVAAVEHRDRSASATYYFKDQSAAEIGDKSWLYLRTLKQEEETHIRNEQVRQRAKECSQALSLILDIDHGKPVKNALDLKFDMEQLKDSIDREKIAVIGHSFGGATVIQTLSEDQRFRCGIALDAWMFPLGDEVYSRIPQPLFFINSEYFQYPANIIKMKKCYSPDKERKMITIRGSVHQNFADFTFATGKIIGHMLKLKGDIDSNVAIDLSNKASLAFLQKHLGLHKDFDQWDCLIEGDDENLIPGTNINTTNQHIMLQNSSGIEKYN

[2] = target: T1, Platelet-activating factor acetylhydrolase; assay: Inhibition of human plasma lipoprotein-associated phospholipase A2 using 2-thio-PAF as substrate preincubated for 20 mins measured 1 hr post substrate addition by spectrophotometric analysis

O=C(Nc1ccccc1)c1ccc2cccc(O)c2n1
pIC50 [1]: < 4.00
pIC50 [2]: < 4.00

Oc1cccc2cccnc12 [OXYQUINOLINE]
pIC50 [1]: < 4.00
pIC50 [2]: < 4.00

O=C(O)c1cc(O)c2cccc(O)c2n1 [XANTHURENATE]
pIC50 [1]: < 4.00
pIC50 [2]: < 4.00
